Organism: Rattus norvegicus
Assay: Open TG-GATES - Regimen: Daily Repeat
Assay type: toxicity, organism-based, Sprague-Dawley
Set-up: regimen Daily Repeat, gender Male, age 6 weeks
Details: in vivo, po, route gavage; for TBIL / TC / TG / TP / gamma-GTP / ALP / ALT / AST / BUN / CRE / Ca / Cl / DBIL / K / LDH / Na / PL / RALB / IP: tissue Plasma; for APTT / Bas / Eos / Fbg / Hb / Ht / Lym / MCH / MCHC / MCV / PT / Plat / RBC / Ret / WBC / Mono / Neu: tissue Blood; for LIVER: tissue Liver
[1] = 1 mg/kg, […], dose level Low, time 28 day
[2] = 3 mg/kg, 72 h, dose level Middle, time 3 day
[3] = 3 mg/kg, 72 h, tissue Kidney, dose level Middle, time 3 day
[4] = 3 mg/kg, […], dose level Middle, time 14 day
[5] = 3 mg/kg, […], dose level Middle, time 28 day
[6] = 3 mg/kg, […], tissue Kidney, dose level Middle, time 14 day
[7] = 3 mg/kg, […], tissue Kidney, dose level Middle, time 28 day
[8] = 10 mg/kg, 72 h, dose level High, time 3 day
[9] = 10 mg/kg, 72 h, tissue Kidney, dose level High, time 3 day
[10] = 10 mg/kg, […], dose level High, time 14 day
[11] = 10 mg/kg, […], dose level High, time 28 day
[12] = 10 mg/kg, […], tissue Kidney, dose level High, time 14 day
[13] = 10 mg/kg, […], tissue Kidney, dose level High, time 28 day

## C#C[C@]1(O)CC[C@H]2[C@@H]3CCc4cc(O)ccc4[C@H]3CC[C@@]21C [ETHINYL ESTRADIOL]
[1]
  TBIL: 0.1 mg/dL
  TC: 50.6 mg/dL
  TG: 82 mg/dL
  TP: 6.8 g/dL
  gamma-GTP: 3.2 IU/L
[2]
  TERMINAL_BW: 201.7 g
  APTT: 22.6 s
  Bas: 0%
  Eos: 1%
  Fbg: 302.4 mg/dL
  Hb: 13.7 g/dL
  Ht: 40.3%
  Lym: 76.4%
  MCH: 20.9 pg
  MCHC: 34.1%
  MCV: 61.5 fL
  PT: 13.5 s
  Plat: 106.8 x10_4/uL
  RBC: 656.8 x10_4/ul
  Ret: 4.4%
  WBC: 75.4 x10_2/uL
  LIVER: 12.6 g
  ALP: 2898.2 IU/L
  ALT: 40.8 IU/L
  AST: 66.2 IU/L
  BUN: 9.8 mg/dL
  CRE: 0.2 mg/dL
  Ca: 10.5 mg/dL
  Cl: 108.2 meq/L
  DBIL: 0.038 mg/dL
  K: 4 meq/L
  LDH: 77.8 IU/L
  Na: 143.6 meq/L
  PL: 74.8 mg/dL
  RALB: 2.6 g/dL
  TBIL: 0.07 mg/dL
  TC: 24.8 mg/dL
  TG: 55.6 mg/dL
  TP: 5.6 g/dL
[3]
  KIDNEY_L: 0.9 g
  KIDNEY_R: 1 g
[4]
  TERMINAL_BW: 223.6 g
  APTT: 19.5 s
  Bas: 0%
  Eos: 1%
  Fbg: 316.6 mg/dL
  Ht: 37.1%
  Lym: 76.2%
  MCH: 20.2 pg
  MCHC: 36%
  MCV: 56.2 fL
  Mono: 2.2%
  Neu: 20%
  PT: 13.6 s
  Plat: 149.1 x10_4/uL
  RBC: 659.8 x10_4/ul
  Ret: 2.4%
  WBC: 96.9 x10_2/uL
  LIVER: 15.2 g
  ALP: 2422.2 IU/L
  ALT: 39.2 IU/L
  AST: 55.4 IU/L
  BUN: 16.4 mg/dL
  CRE: 0.3 mg/dL
  Cl: 105.4 meq/L
  DBIL: 0.088 mg/dL
  IP: 6.2 mg/dL
  LDH: 88.2 IU/L
  Na: 143.8 meq/L
  PL: 126.8 mg/dL
  RALB: 3 g/dL
  TBIL: 0.2 mg/dL
  TC: 40.6 mg/dL
  TG: 76.4 mg/dL
  TP: 6.8 g/dL
  gamma-GTP: 4.4 IU/L
[5]
  TERMINAL_BW: 227.7 g
  APTT: 24.1 s
  Bas: 0%
  Fbg: 301 mg/dL
  Ht: 37.2%
  Lym: 77.6%
  MCH: 18.7 pg
  MCHC: 36.1%
  MCV: 51.7 fL
  Mono: 2.2%
  PT: 14 s
  Plat: 110.2 x10_4/uL
  RBC: 719 x10_4/ul
  Ret: 2%
  WBC: 69.4 x10_2/uL
  LIVER: 13.8 g
  ALP: 1503.2 IU/L
  ALT: 40.6 IU/L
  AST: 50.6 IU/L
  BUN: 14.8 mg/dL
  CRE: 0.2 mg/dL
  Ca: 10.8 mg/dL
  Cl: 105.2 meq/L
  DBIL: 0.062 mg/dL
  IP: 4.9 mg/dL
  K: 3.9 meq/L
  LDH: 51.4 IU/L
  Na: 143.6 meq/L
  PL: 134 mg/dL
  RALB: 3.1 g/dL
  TBIL: 0.1 mg/dL
  TC: 46.8 mg/dL
  TG: 59.2 mg/dL
  TP: 6.9 g/dL
  gamma-GTP: 9.8 IU/L
[6]
  KIDNEY_L: 1 g
  KIDNEY_R: 1 g
  KIDNEY_TOTAL: 2 g
[7]
  KIDNEY_L: 1 g
  KIDNEY_R: 1 g
[8]
  TERMINAL_BW: 202.8 g
  APTT: 17.7 s
  Bas: 0.2%
  Eos: 1%
  Fbg: 289.4 mg/dL
  Hb: 13.2 g/dL
  Ht: 38.8%
  Lym: 81.8%
  MCHC: 34.2%
  MCV: 62.2 fL
  Mono: 4.8%
  Neu: 12%
  Plat: 114.3 x10_4/uL
  RBC: 623.8 x10_4/ul
  Ret: 4.8%
  WBC: 91.7 x10_2/uL
  LIVER: 13.9 g
  ALP: 2718.6 IU/L
  ALT: 40.8 IU/L
  AST: 63 IU/L
  BUN: 9.4 mg/dL
  CRE: 0.2 mg/dL
  Ca: 10.3 mg/dL
  Cl: 107.8 meq/L
  DBIL: 0.044 mg/dL
  IP: 7.8 mg/dL
  K: 4.3 meq/L
  LDH: 76.8 IU/L
  PL: 65.8 mg/dL
  RALB: 2.5 g/dL
  TBIL: 0.082 mg/dL
  TC: 23.2 mg/dL
  TG: 30.2 mg/dL
  TP: 5.3 g/dL
  gamma-GTP: 1 IU/L
[9]
  KIDNEY_L: 1 g
  KIDNEY_R: 1 g
[10]
  TERMINAL_BW: 202.6 g
  APTT: 20.6 s
  Bas: 0%
  Eos: 1%
  Fbg: 254 mg/dL
  Hb: 13.9 g/dL
  Ht: 39%
  Lym: 78.2%
  MCH: 20.6 pg
  MCHC: 35.7%
  MCV: 57.8 fL
  Mono: 2.6%
  PT: 14 s
  Plat: 122.3 x10_4/uL
  RBC: 675.2 x10_4/ul
  Ret: 0.9%
  WBC: 71.4 x10_2/uL
  LIVER: 14.2 g
  ALP: 2093.8 IU/L
  AST: 58.4 IU/L
  BUN: 15.4 mg/dL
  CRE: 0.2 mg/dL
  Cl: 104.6 meq/L
  DBIL: 0.074 mg/dL
  IP: 6.4 mg/dL
  LDH: 125.2 IU/L
  Na: 144.8 meq/L
  PL: 89.8 mg/dL
  RALB: 3.1 g/dL
  TBIL: 0.1 mg/dL
  TC: 28.4 mg/dL
  TG: 30.4 mg/dL
  TP: 7 g/dL
  gamma-GTP: 12.2 IU/L
[11]
  TERMINAL_BW: 211.1 g
  APTT: 24.9 s
  Bas: 0%
  Eos: 0.6%
  Fbg: 258.6 mg/dL
  Hb: 12.4 g/dL
  Ht: 33.9%
  Lym: 78.6%
  MCH: 19 pg
  MCHC: 36.6%
  MCV: 51.7 fL
  Mono: 2%
  Neu: 18.2%
  Plat: 120.4 x10_4/uL
  RBC: 656.4 x10_4/ul
  Ret: 1.9%
  WBC: 61.3 x10_2/uL
  LIVER: 15.1 g
  ALP: 1817.4 IU/L
  ALT: 61.6 IU/L
  BUN: 16.4 mg/dL
  CRE: 0.2 mg/dL
  Cl: 104.6 meq/L
  DBIL: 0.1 mg/dL
  IP: 5.8 mg/dL
  LDH: 94.4 IU/L
  Na: 145 meq/L
  PL: 118.6 mg/dL
  RALB: 3.3 g/dL
  TBIL: 0.3 mg/dL
  TC: 40 mg/dL
  TG: 60.2 mg/dL
  TP: 7.3 g/dL
  gamma-GTP: 19 IU/L
[12]
  KIDNEY_L: 1 g
  KIDNEY_R: 1 g
[13]
  KIDNEY_L: 1 g
  KIDNEY_R: 1 g
